{"source": "patent US20090192209A1", "about": "“Extended treatment of tumors through vessel occlusion with light activated drugs” (Light Sciences Oncology, Inc., priority 2004, published 2009)", "key": {"[1]": {"system": "targeted tumors, including liver metastases arising from various primaries", "conditions": "clinical tests, PDT; Cancer 2003; 98:1767-71; cited from earlier work"}, "[2]": {"system": "R1 rhabdomyosarcoma tumor fragment implanted in liver", "assay": "PDT with single implanted LED light source proximal to tumor-feeding vessel in rat liver tumor model", "format": "in vivo, WAG/Rij rats", "protocol": "A study was carried out to explore whether placement of a single light source in proximity to an identified tumor-feeding vessel could result in effective treatment of larger volumes of the organ in which there was neoplasia than might be achieved using direct PDT on tumor tissue itself.\nMethods. The liver of each of 20 WAG/Rij rats was implanted with a R1 rhabdomyosarcoma tumor fragment. […] A 10×1.5 mm LED light source was implanted in the liver proximal to an upstream feeding vessel. LEDs were placed at a distance ≧5 mm from the tumor to ensure that the tumor itself was outside the direct illumination effect of the PDT. After a 10-minute drug-light interval, a light dose totaling 200 J/cm was administered. Animals were sacrificed at various time points, up to 10 days post treatment, and the extent and the mechanism of cell death was evaluated histologically using TUNEL [TdT-mediated dUTP-X nick end labeling] and EM [Electron Microscopy]."}}, "data": [{"molecule": "C=Cc1c(C)c2cc3nc(c(CC(=O)N[C@@H](CC(=O)O)C(=O)O)c4[nH]c(cc5nc(cc1[nH]2)C(C)=C5CC)c(C)c4C(=O)O)[C@@H](CCC(=O)O)[C@@H]3C", "note": "[Talaporfin Sodium]", "values": [{"measurement": "objective response rates in targeted tumors", "setting": "[1]", "value": "33-50%"}, {"measurement": "cell death in tumors implanted downstream from the targeted vessel (TUNEL, EM)", "setting": "[2]; 5 mg/kg i.v. tail vein, 10-minute drug-light interval, 200 J/cm, LED ≧5 mm from tumor", "value": "cell death was consistently induced by a predominantly apoptotic mechanism"}, {"measurement": "cell death in tumors similarly close to light source but vascularized by vessels other than the one targeted", "setting": "[2]; 5 mg/kg i.v., 200 J/cm", "value": "no cell death was observed"}, {"measurement": "time cell death first observed after PDT (TUNEL)", "setting": "[2]; 5 mg/kg i.v., 200 J/cm, tumors downstream from targeted vessel", "value": 2, "unit": "days"}, {"measurement": "closure of larger blood vessels / extended PDT effect", "setting": "[2]; dosed at 2 mg/kg or less", "value": "not sufficient to close larger blood vessels"}, {"measurement": "extent of PDT treatment effect", "setting": "[2]; dosed at 2 mg/kg or less", "value": "restricted to the immediate vicinity of the illumination"}]}]}
